Measured values from the OligoGym collection.
After the bases stand the sugars from the 5' end (letter, count) and the backbone: PS all phosphorothioate, else s phosphorothioate and o phosphodiester by linkage. Methylation of C is not given here. l = locked nucleic acid (LNA); d = 2'-deoxy (DNA)

Biological target: SNHG14
Settings: ASO
[1] = Mouse Primary Neuronal Cell, 0.005 µM

Sequence	target mRNA inhibition (Human Neuronal Cell, 0.2 µM) [%]	target mRNA inhibition (Human Neuronal Cell, 1 µM) [%]	target mRNA inhibition (Human Neuronal Cell, 7.5 µM) [%]	also measured
ATAACATTACTCTTAACA (sugars l3 d12 l3, PS)	22	40		
ATACCTTTCTTTAACCC (sugars l4 d11 l2, PS)	60	67		
ATATCCCTTGATTATCC (sugars l3 d11 l3, PS)	16	18		
ATATTGATTCAATTCCC (sugars l1 d1 l2 d8 l5, PS)			64	
ATATTGATTCAATTCCC (sugars l4 d7 l1 d3 l2, PS)			67	
ATATTGATTCAATTCCC (sugars llldldddddddlddll, PS)			52	
ATCATTCTCAACAATTAA (sugars l1 d1 l4 d6 l6, PS)			4	
ATCATTCTCAACAATTAA (sugars l4 d8 l1 d1 l4, PS)			53	
ATCATTCTCAACAATTAA (sugars l5 d8 l1 d1 l3, PS)			59	
ATCATTCTCAACAATTAAA (sugars l5 d8 l2 d2 l2, PS)			57	
ATCCAAAGTTTCTTTC (sugars l4 d10 l2, PS)	43	34		
ATCCTATGTTAATACT (sugars l4 d10 l2, PS)	14	33		
ATCCTGATAATTAACT (sugars l4 d10 l2, PS)	-8	5		
ATCTCATGACCACCTAA (sugars l3 d10 l1 d1 l2, PS)			60	
ATCTCATGACCACCTAA (sugars ldldddddddddldlll, PS)			61	
ATCTCATGACCACCTAA (sugars ldlddddddddlddlll, PS)			52	
ATCTGATCTCACACAT (sugars l3 d10 l3, PS)	22	40		
ATCTTTCCATTTATTTCCA (sugars lddlddddddddddlddll, PS)			44	
ATCTTTCCATTTATTTCCAT (sugars l1 d16 l3, PS)			15	
ATGCTCACACTAATTA (sugars l4 d10 l2, PS)	35	48		
ATTGATTCAATTCCCTT (sugars ldldldddddddlldll, PS)			65	
ATTGATTCAATTCCCTT (sugars llddlddddddddldll, PS)			64	

Sequence	target mRNA inhibition (Human Neuronal Cell, 0.2 µM) [%]	target mRNA inhibition (Human Neuronal Cell, 1 µM) [%]	target mRNA inhibition (Human Neuronal Cell, 7.5 µM) [%]	also measured
ATTGATTCAATTCCCTT (sugars llddldddddddldlll, PS)			50	
ATTTACACTTAATTATACTT (sugars ldllddlddddddlllldll, PS)			12	
ATTTACACTTAATTATACTT (sugars lldlddlddddddllldlll, PS)			10	
ATTTATTTCCATTTATTTTC (sugars lldldlddddddddldldll, PS)			55	
ATTTCATTAAGTCACCC (sugars l3 d11 l3, PS)	51	53		
ATTTCTCTATGTCACAT (sugars l3 d11 l3, PS)	31	35		
ATTTTTTTCTTACTATCTTC (sugars ldddddlddddddldddlll, PS)			43	
ATTTTTTTCTTACTATCTTC (sugars lddddlddddddddldldll, PS)			63	
ATTTTTTTCTTACTATCTTC (sugars ldlddldddddddddddlll, PS)			56	
ATTTTTTTCTTACTATCTTC (sugars llddldldddddddldddll, PS)			49	
CAAAGATCATTCTCAAC (sugars l5 d6 l1 d1 l4, PS)			22	
CAAAGATCATTCTCAACA (sugars l1 d4 l1 d7 l5, PS)			65	
CAAAGATCATTCTCAACA (sugars l3 d1 l2 d10 l2, PS)			61	
CAACATTATTAACCACCTT (sugars l1 d2 l1 d12 l3, PS)			53	
CAACATTATTAACCACCTT (sugars l2 d10 l2 d3 l2, PS)			43	
CAACATTATTAACCACCTT (sugars lldlldddddddddldlll, PS)			49	
CAACATTATTAACCACCTTA (sugars l1 d15 l4, PS)			36	
CAACATTATTAACCACCTTA (sugars l2 d4 l1 d11 l2, PS)			37	
CAACATTATTAACCACCTTA (sugars llddlddddddddddldlll, PS)			47	
CAACATTATTGACACT (sugars l2 d10 l4, PS)	45	61		
CAACTCTCACTGTAACT (sugars l4 d11 l2, PS)	47	49		
CACAATCAACAACAAATA (sugars l4 d12 l2, PS)	40	54		

Sequence	target mRNA inhibition (Human Neuronal Cell, 0.2 µM) [%]	target mRNA inhibition (Human Neuronal Cell, 1 µM) [%]	target mRNA inhibition (Human Neuronal Cell, 7.5 µM) [%]	also measured
CACCACTGATTTCCTT (sugars l3 d10 l3, PS)	43	53		
CACCTGATAACAGACC (sugars l3 d10 l3, PS)	-22	7		target mRNA inhibition (Human Neuronal Cell, 5 µM): 27%
CAGCAGGCAGATAACCTC (sugars l3 d12 l3, PS)	-4	18		target mRNA inhibition (Human Neuronal Cell, 5 µM): 21%
CAGCATTCAACCCTAAT (sugars l3 d12 l2, PS)	40	54		
CAGCCATAAACTATAT (sugars l4 d10 l2, PS)	15	7		
CAGCTATTCAATAAAC (sugars l4 d10 l2, PS)	8	7		
CAGCTTTTAACCAGAGTGG (sugars l1 d15 l3, PS)			69	
CAGCTTTTAACCAGAGTGGC (sugars l1 d17 l2, PS)			40	
CATATTGAACCAATTC (sugars l4 d10 l2, PS)	51	67		
CATCATATTGAACCAA (sugars l2 d10 l4, PS)	52	63		
CATCTGATCTCACACAT (sugars l4 d11 l2, PS)	29	46		
CATCTGCTACATATTCT (sugars l4 d11 l2, PS)	53	62		
CATTATATTTAAACTATCA (sugars l4 d13 l2, PS)	8	15		
CATTATTAACCACCTT (sugars l2 d10 l4, PS)	54	59		
CATTTCATATTACTAACT (sugars l3 d12 l3, PS)	10	18		
CCAAACTGTCTTCTAAT (sugars l2 d11 l4, PS)	23	26		
CCAGACTCCAATATTT (sugars l4 d10 l2, PS)	55	39		
CCAGCATATTATATAC (sugars l3 d10 l3, PS)	27	23		
CCATCTAATGATTATT (sugars l4 d10 l2, PS)	26	21		
CCATTCAATGATCACT (sugars l2 d10 l4, PS)	52	45		
CCATTTATTTCCATTTATTT (sugars lddlldldddddddddddll, PS)			40	
CCTACATCTCATACTT (sugars l2 d12 l2, PS)	-3	-3		target mRNA inhibition (Human Neuronal Cell, 5 µM): 11%

Sequence	target mRNA inhibition (Human Neuronal Cell, 0.2 µM) [%]	target mRNA inhibition (Human Neuronal Cell, 1 µM) [%]	target mRNA inhibition (Human Neuronal Cell, 7.5 µM) [%]	also measured
CCTACATCTCATACTTGC (sugars l2 d14 l2, PS)	4	21		target mRNA inhibition (Human Neuronal Cell, 5 µM): 25%; target mRNA inhibition [1]: 92.2%
CCTATGTTAATACTTTC (sugars l4 d11 l2, PS)	35	47		
CCTTCCCTTTGATAAC (sugars l3 d11 l2, PS)	28	55		
CCTTTAGCATTTCTATT (sugars l2 d11 l4, PS)	38	59		
CCTTTCATTAACATTTA (sugars l3 d11 l3, PS)	46	52		
CTACAAATTCAATTTACT (sugars l2 d12 l4, PS)	3	10		
CTACATCTCATACTTGC (sugars l2 d12 l3, PS)				target mRNA inhibition [1]: 97%
CTACTAAACATACACAT (sugars l3 d11 l3, PS)	34	45		
CTATGTTAATACTTTC (sugars l4 d10 l2, PS)	26	31		
CTCAAAGATCATTCTCA (sugars l1 d1 l3 d8 l4, PS)			66	
CTCATACTTGCTTTAAT (sugars l4 d11 l2, PS)	7	13		target mRNA inhibition (Human Neuronal Cell, 5 µM): 26%; target mRNA inhibition [1]: 96.4%
CTCATCCCTCCAAGAAA (sugars l2 d13 l2, PS)	5	-16		target mRNA inhibition (Human Neuronal Cell, 5 µM): -5%; target mRNA inhibition [1]: 88.8%
CTCCAACATAGATCCT (sugars l3 d10 l3, PS)	44	54		
CTCTCCTCAAGATCAA (sugars l3 d10 l3, PS)	37	49		
CTGTTTATACCCTTTCCA (sugars l1 d1 l1 d13 l2, PS)			50	
CTGTTTATACCCTTTCCA (sugars l1 d2 l1 d12 l2, PS)			56	
CTTCCCTTTGATAACAT (sugars l3 d11 l3, PS)	20	43		
CTTTAATGCTTCTAACT (sugars l4 d11 l2, PS)	28	55		
CTTTCCATTTATTTCCATT (sugars ldddddddddddldldlll, PS)			66	
CTTTCCATTTATTTCCATTT (sugars ldddldldddddddddddll, PS)			53	
